pEC50: −log10 of the molar value.
Key:
[1] = molecular target: T1, GFP-tagged TRIM24 in HeLa cells (Homo sapiens, UniProt O15164); test: GFP version of the in situ cell extraction assay; format: cell-based
T1 construct: PB-TRIM24 PHD and bromodomain of TRIM24; expressed in transfected cells; host or cells: HeLa
T1 sequence (O15164 810-1050 limits assumed): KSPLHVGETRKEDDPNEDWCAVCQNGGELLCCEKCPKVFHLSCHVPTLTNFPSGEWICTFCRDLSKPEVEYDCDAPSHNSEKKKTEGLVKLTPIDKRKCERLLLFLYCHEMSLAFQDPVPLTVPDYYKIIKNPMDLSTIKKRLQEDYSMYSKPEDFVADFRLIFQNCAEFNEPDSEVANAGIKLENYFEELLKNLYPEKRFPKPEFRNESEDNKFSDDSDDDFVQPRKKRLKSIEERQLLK
Source text: In an HTS setting, we further simplified the in situ cell extraction procedure by replacing the indirect IF step (e.g., anti-FLAG) with cells engineered to express fluorescent moieties (e.g., GFP) fused to the protein target of interest (Additional file 1: Figure S5). In this format, the assay has minimal time and reagent costs associated with HTS operation, since no further liquid handling or processing steps are needed after detergent extraction and fixation. […] This is particularly noteworthy for two orthogonal assays that monitor either the displacement of TRIM24 from chromatin/nuclear structures or directly measure TRIM24/histone-H3 dissociation in cells.
OV90 or HeLa cells (20,000 cells/100 µL) were seeded into 96-well plates (Corning Costar #3603) using RPMI or DMEM medium, respectively, supplemented with 10 % FBS and grown overnight. Test agents were serially diluted in DMSO (with or without SAHA) to generate 10X master compound plates. From here, 11 µL was transferred into each well containing 100 µL of growth media followed by shaking on a rotation table (15 min, 300 rpm at RT) and incubation at 37 °C for 2 h. Plates were washed once with PBS (150 µL/well) and then with cold, freshly prepared Cytoskeleton (CSK) Buffer (10 mM PIPES, 300 mM Sucrose, 100 mM NaCl, 3 mM MgCl2; pH = 6.8). Immediately thereafter, soluble, non-chromatin-bound proteins were extracted by addition of cold CSK Buffer supplemented with 0.5 % Triton X-100 (150 µL per well) for 10 min at 4 °C followed by 4 % paraformaldehyde fixation (10 min at RT) (Additional file 1: Table S3). […]
number of fields and the number of cells in 96- and 384-well format that is enough for analysis.
Figure S5. HTS-friendly GFP-version of the in situ cell extraction assay. (A) In situ cell extraction […]
cells were treated with TRIM24i in 96-well plate using concentration range from 20 nM to 100
µM. […] EC50 curve was calculated by Harmony software during the scan. […]
Figure S6. […] Extraction buffer was added to the wells and each field of view was monitored every 3 minutes during 15 minutes. […]

[2] = tested on: histone H3K23Ac mark in HeLa cells; test: H3K23 acetylation in HeLa cells (Western blot, anti-H3K23Ac immunostaining); format: cell-based; conditions: 2 h
Description: Standard IF procedures were used. Briefly, cells were permeabilized (0.5 % Triton X-100 in PBS) for 15 min and incubated with blocking solution (DAKO #X0909) for 30 min. The following primary antibodies were used: goat anti-V5 (Bethyl #A190-119A) 1:200; mouse anti-FLAG (Sigma #F1804) 1:200; rabbit anti-BRD4 (Abcam #ab128874) 1:200; rabbit anti-TRIM24 (Proteintech #14208-1-AP) 1:400; rabbit anti-K3K23Ac (Cell Signaling #8848) 1:200, and mouse anti-histone H3 (Active Motif #39763) 1:4000. Alexa Fluor-conjugated secondary antibodies were from Invitrogen and Hoechst 33342 (Invitrogen, #H3570) was used for nuclei counterstaining (10 µg/ml). For each Alexa fluorochrome, images (4–10 fields per well; 20X magnifications) were acquired using the Operetta High-Content Screening System (PerkinElmer). Image analysis was performed in Harmony software (PerkinElmer) by selecting nuclei and cytoplasm in Hoechst channel. Gating for single cells of flat morphology was done based on nuclei area, roundness and intensity of Hoechst in the nucleus and in the cytoplasm. In every gated cell, the mean signal intensity value for each fluorochrome was calculated separately in nucleus and cytoplasm. The specific nuclear signal was estimated subtracting mean cytoplasmic value from nuclear; and average value was calculated using at least 1000 cells in each well.

SMILES	pEC50 ([1]; HeLa cells expressing GFP-tagged TRIM24, 1 h incubation)	Displacement of TRIM24-GFP from chromatin ([1]; after extraction)	Time to displacement of TRIM24-GFP from chromatin ([1]; data not shown) [min]	H3K23 acetylation (anti-H3K23Ac immunostaining) ([2]; 3 µM, HeLa control and TRIM24-PB cells)	Cellular histone H3K23Ac mark ([2]; HDAC inhibitor treatment, 2 µM, Western blot)
Cc1nc(S(=O)(=O)Nc2cc3c(cc2Oc2cccc(OCC(C)C)c2)n(C)c(=O)n3C)cn1C [IACS-6558, N-{1,3-dimethyl-6-[3-(2-methylpropoxy)phenoxy]-2-oxo-2,3-dihydro-1H-1,3-benzodiazol-5-yl}-1,2-dimethyl-1H-imidazole-4-sulfonamide]	5.64	full displacement	≤ 1	–	–
O=C(CCCCCCC(=O)Nc1ccccc1)NO [SAHA, Suberoylanilide Hydroxamic Acid]	–	–	–	maximal H3K23 acetylation	hyperacetylated
